Reference: patent EP3150574B1, “AMANTADINE NITRATE COMPOUND HAVING A NEUROPROTECTIVE EFFECT AND PREPARATION AND MEDICAL USE THEREOF” (Guangzhou Magpie Pharmaceuticals Co., Ltd., priority 2014, dated 2015)

These compounds were tested on primary cerebellum granule cells of rats (assay: Protective effects of compounds on primary cerebellum granule cells against glutamate-induced excitotoxic injury (MTT cell viability)). Conditions: protective effect on rat's nerve cells, pre-protection 2 h, then for 24 h, absorbance at 570 nm.
Type: cell-based
Protocol: Isolated primary cerebellum granule cells of infant rats were inoculated in 96-well plates with 1.2×10^5/well by using 10% FBS + 25 mM KCl + 2 mM Glutamine + 1% of double-antibody BME medium. After 24 hours, cytarabine with a final concentration of 10 iM was added to inhibit the proliferation of neurogliocyte cells. After the day 4, glucose with the final concentration of 5 mM was added every four days to complement energy metabolism and water evaporation of cells. The materials were placed in a cell incubator (37 °C, 5% CO2) to be cultured for 10 days. […] After pre-protection for 2 h, 200 iM of glutamate was added to induce cell damage for 24h, and then MTT was added to culture for 4 h. The supernatant fraction was sucked, and 150 iL of DMSO was added to each well for dissolving. After blending with shaking, the light absorption values under 570 nm wavelength was measured with a microplate reader, and the viability of cells was calculated. Cell viability (%) = absorbance of different groups / absorbance of the normal control group × 100%.

**Q.** CCC12CC3CC(N)(C1)CC(CO[N+](=O)[O-])(C3)C2 (stereo not shown) [NM-004] was tested. Which EC50 did it give?
**A.** 8.12 µM

**Q.** Which EC50 does the source give for CCC12CC3CC(N)(C1)CC(CCCO[N+](=O)[O-])(C3)C2 (stereo not shown) [NM-005] here?
**A.** 6.06 µM

**Q.** With NC12CC3CC(CCO[N+](=O)[O-])(C1)CC(CCO[N+](=O)[O-])(C3)C2 [NM-009] as the compound, how does the EC50 read?
**A.** 5.2 µM

**Q.** Which EC50 does the source give for CC(CO[N+](=O)[O-])CC12CC3CC(N)(C1)CC(CC(C)CO[N+](=O)[O-])(C3)C2 (stereo not shown) [NM-012] here?
**A.** 9.3 µM
